According to ChEMBL document CHEMBL1139653, “Synthesis and biological evaluation of novel hexahydro-pyrido[3',2':4,5]pyrrolo[1,2-a]pyrazines as potent and selective 5-HT(2C) receptor agonists” (Bioorg Med Chem Lett, 2006):

Key:
[1] = biological target: T1, 5-hydroxytryptamine receptor 2C (Homo sapiens, UniProt P28335); assay: Displacement of [3H]5HT from human recombinant 5HT2C receptor expressed in CHO cells; type: cell-based
T1 sequence (P28335 whole entry): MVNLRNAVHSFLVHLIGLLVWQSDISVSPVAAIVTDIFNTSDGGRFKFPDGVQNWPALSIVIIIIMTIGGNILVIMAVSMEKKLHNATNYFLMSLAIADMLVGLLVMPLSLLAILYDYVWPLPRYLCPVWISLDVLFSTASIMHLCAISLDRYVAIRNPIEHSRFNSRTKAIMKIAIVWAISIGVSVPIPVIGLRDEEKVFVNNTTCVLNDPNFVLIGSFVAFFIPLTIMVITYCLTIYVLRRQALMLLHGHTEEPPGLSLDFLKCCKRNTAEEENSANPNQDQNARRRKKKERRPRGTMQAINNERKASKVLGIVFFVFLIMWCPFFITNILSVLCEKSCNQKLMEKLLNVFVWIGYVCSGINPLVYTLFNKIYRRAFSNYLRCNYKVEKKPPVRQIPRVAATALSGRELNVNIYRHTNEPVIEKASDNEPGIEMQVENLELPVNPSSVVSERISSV

[2] = biological target: T2, 5-hydroxytryptamine receptor 2B (Homo sapiens, UniProt P41595); assay: Displacement of [3H]5HT from human recombinant 5HT2B receptor expressed in CHO cells; type: cell-based
[3] = biological target: T3, 5-hydroxytryptamine receptor 2C (Homo sapiens) (UniProt P28335); assay: Efficacy against human recombinant 5HT2C receptor expressed in CHO cells at 1 uM in relative to 10 uM 5HT by FLIPR; type: functional, cell-based
T3 sequence (whole entry): T1 sequence (P28335 whole entry)

[4] = biological target: T4, 5-hydroxytryptamine receptor 2A (Homo sapiens, UniProt P28223); assay: Displacement of [125I]DOI from human recombinant 5HT2A receptor expressed in CHO cells; type: cell-based
Phospholipidosis [5] = assay: In vitro phospholipidosis in fibroblasts at 20uM; type: ADME
[6] = biological target: Voltage-gated inwardly rectifying potassium channel KCNH2 (Homo sapiens, UniProt Q12809); assay: Inhibition of hERG potassium channel expressed in CHO cells by whole cell patch clamp method; type: toxicity, cell-based
Phospholipidosis [7] = assay: In vitro phospholipidosis in fibroblasts at 7.5uM; type: ADME, cell-based; details: fibroblast
[8] = biological target: T4, 5-hydroxytryptamine receptor 2A
Description: Binding affinity to human recombinant 5HT2A receptor

[9] = biological target: 5-hydroxytryptamine receptor 1A (Homo sapiens, UniProt P08908); assay: Binding affinity to 5HT1A receptor
[10] = biological target: Adrenergic receptor alpha-1 (Homo sapiens, UniProt P35348+P25100+P35368); assay: Binding affinity to alpha-1 adrenergic receptor; type: protein assay
[11] = biological target: 5-hydroxytryptamine receptor 6 (Homo sapiens, UniProt P50406); assay: Binding affinity to 5HT6 receptor
[12] = biological target: 5-hydroxytryptamine receptor 7 (Homo sapiens, UniProt P34969); assay: Binding affinity to 5HT7 receptor
[13] = biological target: T1, 5-hydroxytryptamine receptor 2C; assay: Efficacy against human recombinant 5HT2C receptor induced intracellular calcium mobilization in CHO cells by FLIPR
[14] = biological target: Beta-1 adrenergic receptor (Homo sapiens, UniProt P08588); assay: Binding affinity to beta-1 adrenergic receptor
Mu-type opioid receptor = Mu-type opioid receptor (Homo sapiens, UniProt P35372); assay: Binding affinity to mu type opioid receptor
[15] = biological target: 5-hydroxytryptamine receptor 5A (Homo sapiens, UniProt P47898); assay: Binding affinity to 5HT5A receptor
[16] = biological target: Serotonin 3 (5-HT3) receptor; assay: Binding affinity to 5HT3 receptor; type: protein-complex assay, Homo sapiens
[17] = biological target: Sodium-dependent dopamine transporter (Homo sapiens, UniProt Q01959); assay: Binding affinity to DA transporter
D(4) dopamine receptor = D(4) dopamine receptor (Homo sapiens, UniProt P21917); assay: Binding affinity to D4 receptor
Rattus norvegicus = assay: Reduction of food intake in po dosed Hooded Lister rat; type: functional; details: read-out: MED
[18] = biological target: Sodium-dependent noradrenaline transporter (Homo sapiens, UniProt P23975); assay: Binding affinity to NA transporter
[19] = biological target: T2, 5-hydroxytryptamine receptor 2B; assay: Efficacy against human recombinant 5HT2B receptor induced intracellular calcium mobilization in CHO cells by FLIPR; type: functional, cell-based
[20] = biological target: 5-hydroxytryptamine receptor 1B (Homo sapiens, UniProt P28222); assay: Binding affinity to 5HT1B receptor
[21] = biological target: 5-hydroxytryptamine receptor 1D (Homo sapiens, UniProt P28221); assay: Binding affinity to 5HT1D receptor
[22] = Binding affinity to sodium channel
[23] = biological target: Sodium-dependent serotonin transporter (Homo sapiens, UniProt P31645); assay: Binding affinity to 5HT transporter
hERG (KCNH2) = hERG (KCNH2) (Homo sapiens, UniProt Q12809); assay: Inhibition of hERG potassium channel expressed in CHO cells by whole cell patch clamp method at 10 uM; type: toxicity, cell-based; details: CHO cells expressing hERG

Voltage-gated inwardly rectifying potassium channel KCNH2, sequence (Q12809 whole entry): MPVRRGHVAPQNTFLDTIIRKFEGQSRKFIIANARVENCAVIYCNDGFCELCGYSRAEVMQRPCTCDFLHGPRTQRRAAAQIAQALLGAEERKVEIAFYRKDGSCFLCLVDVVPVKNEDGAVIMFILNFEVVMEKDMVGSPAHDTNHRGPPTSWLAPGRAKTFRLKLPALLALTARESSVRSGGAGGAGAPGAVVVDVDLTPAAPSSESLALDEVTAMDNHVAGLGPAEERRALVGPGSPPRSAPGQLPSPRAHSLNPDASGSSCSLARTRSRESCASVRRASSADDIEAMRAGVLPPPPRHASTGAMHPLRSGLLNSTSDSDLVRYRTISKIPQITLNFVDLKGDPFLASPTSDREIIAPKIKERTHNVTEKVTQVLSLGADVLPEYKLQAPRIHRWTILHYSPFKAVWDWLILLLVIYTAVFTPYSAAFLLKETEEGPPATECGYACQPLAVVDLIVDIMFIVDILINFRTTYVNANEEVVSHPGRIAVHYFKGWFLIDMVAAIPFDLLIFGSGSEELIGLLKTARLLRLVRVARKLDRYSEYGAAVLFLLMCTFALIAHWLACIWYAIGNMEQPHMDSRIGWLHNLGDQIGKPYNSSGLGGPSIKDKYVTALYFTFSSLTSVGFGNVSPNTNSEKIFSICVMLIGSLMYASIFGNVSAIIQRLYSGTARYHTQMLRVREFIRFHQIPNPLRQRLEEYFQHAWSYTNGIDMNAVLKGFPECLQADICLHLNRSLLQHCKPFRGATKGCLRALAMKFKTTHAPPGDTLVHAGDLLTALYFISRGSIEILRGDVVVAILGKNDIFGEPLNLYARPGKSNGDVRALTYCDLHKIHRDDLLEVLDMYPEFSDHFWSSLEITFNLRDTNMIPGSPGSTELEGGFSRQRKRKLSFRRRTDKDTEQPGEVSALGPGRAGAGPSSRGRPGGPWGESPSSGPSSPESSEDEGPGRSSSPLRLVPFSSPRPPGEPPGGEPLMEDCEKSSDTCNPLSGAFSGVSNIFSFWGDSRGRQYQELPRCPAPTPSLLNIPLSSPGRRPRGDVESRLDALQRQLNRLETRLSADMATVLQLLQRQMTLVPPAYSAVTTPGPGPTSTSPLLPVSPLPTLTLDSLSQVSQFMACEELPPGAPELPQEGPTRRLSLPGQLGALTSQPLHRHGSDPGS
T2 sequence (P41595 whole entry): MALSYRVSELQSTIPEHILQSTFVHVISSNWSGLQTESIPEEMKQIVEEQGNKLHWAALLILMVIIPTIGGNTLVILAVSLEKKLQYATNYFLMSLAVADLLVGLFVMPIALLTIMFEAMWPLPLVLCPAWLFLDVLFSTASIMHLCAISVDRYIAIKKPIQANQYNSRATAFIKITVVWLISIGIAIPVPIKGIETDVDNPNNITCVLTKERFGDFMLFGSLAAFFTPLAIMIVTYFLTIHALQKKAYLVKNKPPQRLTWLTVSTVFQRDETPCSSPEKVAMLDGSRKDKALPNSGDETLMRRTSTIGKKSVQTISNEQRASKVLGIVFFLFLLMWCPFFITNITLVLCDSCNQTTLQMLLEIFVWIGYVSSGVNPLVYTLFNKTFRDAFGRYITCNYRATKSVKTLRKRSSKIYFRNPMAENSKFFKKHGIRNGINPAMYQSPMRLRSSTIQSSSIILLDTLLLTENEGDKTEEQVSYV
T4 sequence (P28223 whole entry): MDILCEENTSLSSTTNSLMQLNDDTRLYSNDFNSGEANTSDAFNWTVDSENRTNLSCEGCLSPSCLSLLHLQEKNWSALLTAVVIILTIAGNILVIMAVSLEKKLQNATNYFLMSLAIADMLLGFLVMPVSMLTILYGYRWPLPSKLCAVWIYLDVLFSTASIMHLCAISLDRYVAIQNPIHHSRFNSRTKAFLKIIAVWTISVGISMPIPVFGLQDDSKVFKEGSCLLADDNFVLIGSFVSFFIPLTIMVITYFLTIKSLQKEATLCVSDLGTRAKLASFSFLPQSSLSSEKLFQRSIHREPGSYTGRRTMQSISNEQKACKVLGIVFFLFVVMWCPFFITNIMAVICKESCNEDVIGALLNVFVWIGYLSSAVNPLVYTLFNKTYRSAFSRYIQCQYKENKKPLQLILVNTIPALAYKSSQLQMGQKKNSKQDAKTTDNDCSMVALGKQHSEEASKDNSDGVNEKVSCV
Mu-type opioid receptor, sequence (P35372 whole entry): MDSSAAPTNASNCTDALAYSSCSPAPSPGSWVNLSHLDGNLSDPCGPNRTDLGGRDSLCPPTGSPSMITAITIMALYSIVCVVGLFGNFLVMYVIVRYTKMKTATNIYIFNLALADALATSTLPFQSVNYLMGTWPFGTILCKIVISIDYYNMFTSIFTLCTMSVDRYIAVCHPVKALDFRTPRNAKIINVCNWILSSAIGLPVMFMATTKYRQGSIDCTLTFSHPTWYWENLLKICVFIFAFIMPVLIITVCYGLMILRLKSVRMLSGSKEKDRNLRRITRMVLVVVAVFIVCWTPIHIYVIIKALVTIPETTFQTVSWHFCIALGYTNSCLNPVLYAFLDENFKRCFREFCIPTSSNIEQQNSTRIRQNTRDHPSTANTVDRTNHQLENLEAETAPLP
D(4) dopamine receptor, sequence (P21917 whole entry): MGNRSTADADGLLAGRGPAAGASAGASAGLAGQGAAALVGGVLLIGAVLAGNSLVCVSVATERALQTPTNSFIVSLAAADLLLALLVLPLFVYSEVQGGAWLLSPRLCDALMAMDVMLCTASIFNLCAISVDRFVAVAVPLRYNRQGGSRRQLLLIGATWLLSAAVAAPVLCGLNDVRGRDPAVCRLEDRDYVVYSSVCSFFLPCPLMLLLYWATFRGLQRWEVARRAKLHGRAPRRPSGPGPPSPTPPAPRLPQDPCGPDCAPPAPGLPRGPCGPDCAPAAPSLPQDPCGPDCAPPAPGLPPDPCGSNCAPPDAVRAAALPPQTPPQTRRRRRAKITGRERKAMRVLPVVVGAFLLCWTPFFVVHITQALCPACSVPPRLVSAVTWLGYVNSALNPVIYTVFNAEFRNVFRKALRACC
5-hydroxytryptamine receptor 7, sequence (P34969 whole entry): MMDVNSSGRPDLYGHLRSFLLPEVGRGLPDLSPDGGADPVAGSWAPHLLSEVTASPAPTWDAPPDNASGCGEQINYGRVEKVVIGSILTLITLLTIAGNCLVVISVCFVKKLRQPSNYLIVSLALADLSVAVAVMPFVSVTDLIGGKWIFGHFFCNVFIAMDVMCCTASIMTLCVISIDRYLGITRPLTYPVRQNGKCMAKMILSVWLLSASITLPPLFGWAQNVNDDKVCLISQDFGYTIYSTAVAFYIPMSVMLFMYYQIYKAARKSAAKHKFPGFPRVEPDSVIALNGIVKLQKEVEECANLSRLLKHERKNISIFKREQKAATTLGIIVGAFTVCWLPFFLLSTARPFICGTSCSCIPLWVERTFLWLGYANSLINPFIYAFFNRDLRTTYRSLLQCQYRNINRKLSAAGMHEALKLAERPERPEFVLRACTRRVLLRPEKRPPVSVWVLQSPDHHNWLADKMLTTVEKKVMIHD
5-hydroxytryptamine receptor 1D, sequence (P28221 whole entry): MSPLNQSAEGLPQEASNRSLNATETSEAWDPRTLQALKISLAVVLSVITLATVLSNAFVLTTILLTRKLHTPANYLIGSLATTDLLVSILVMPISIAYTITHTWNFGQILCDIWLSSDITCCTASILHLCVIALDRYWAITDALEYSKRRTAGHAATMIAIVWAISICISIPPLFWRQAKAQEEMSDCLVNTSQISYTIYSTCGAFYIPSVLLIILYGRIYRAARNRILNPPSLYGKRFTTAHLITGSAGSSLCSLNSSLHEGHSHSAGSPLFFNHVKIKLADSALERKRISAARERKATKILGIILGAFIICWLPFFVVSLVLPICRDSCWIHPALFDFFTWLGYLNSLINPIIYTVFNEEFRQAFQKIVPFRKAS
Sodium-dependent dopamine transporter, sequence (Q01959 whole entry): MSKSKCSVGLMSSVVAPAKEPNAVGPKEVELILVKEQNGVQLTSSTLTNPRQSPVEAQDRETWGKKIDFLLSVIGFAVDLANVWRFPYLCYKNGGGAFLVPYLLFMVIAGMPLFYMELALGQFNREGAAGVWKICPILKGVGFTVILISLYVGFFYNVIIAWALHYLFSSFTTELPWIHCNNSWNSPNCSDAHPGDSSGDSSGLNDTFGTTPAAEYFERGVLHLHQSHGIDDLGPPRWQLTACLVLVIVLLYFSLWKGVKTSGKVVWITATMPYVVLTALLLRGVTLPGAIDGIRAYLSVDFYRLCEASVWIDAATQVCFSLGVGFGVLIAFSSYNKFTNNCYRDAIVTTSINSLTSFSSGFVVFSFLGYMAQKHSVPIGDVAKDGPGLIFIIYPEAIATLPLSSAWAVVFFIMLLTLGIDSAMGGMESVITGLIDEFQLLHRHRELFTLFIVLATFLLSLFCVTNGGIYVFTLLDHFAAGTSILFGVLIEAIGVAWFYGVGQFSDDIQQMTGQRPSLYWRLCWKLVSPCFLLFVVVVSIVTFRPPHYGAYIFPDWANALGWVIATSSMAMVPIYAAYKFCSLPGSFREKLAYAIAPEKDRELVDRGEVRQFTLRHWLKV
5-hydroxytryptamine receptor 6, sequence (P50406 whole entry): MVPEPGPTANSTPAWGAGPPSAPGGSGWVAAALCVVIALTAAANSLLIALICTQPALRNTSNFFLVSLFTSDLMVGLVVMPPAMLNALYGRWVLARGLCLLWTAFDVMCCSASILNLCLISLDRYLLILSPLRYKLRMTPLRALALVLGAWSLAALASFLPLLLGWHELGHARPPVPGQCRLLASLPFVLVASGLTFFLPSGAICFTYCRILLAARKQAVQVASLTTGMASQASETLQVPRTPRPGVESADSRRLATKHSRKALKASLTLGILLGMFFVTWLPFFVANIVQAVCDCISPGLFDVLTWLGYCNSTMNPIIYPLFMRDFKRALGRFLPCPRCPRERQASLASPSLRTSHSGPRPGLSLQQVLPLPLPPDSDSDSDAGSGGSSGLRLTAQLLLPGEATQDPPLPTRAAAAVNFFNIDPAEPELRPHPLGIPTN

C[C@@H]1CNC[C@@H]2Cc3ccc(Br)nc3N21
Ki [1]: 21 nM | Ki [2]: 166 nM | Efficacy [3]: 87% | Ki [4]: 58 nM

COc1ccc2c(n1)N1[C@@H](CNC[C@H]1C)C2
Ki [1]: 104 nM | Ki [2]: 440 nM | Efficacy [3]: 77% | Ki [4]: 511 nM

Cc1ccc2c(n1)N1[C@@H](CNC[C@H]1C)C2
Ki [1]: 2.7 nM | Ki [2]: 77 nM | Efficacy [3]: 101% | Phospholipidosis (Phospholipidosis [5]): Not Active | Ki [4]: 136 nM | IC50 [6]: 21000 nM

CCO[C@H](C)c1ccc2c(n1)N1[C@@H](CNC[C@H]1C)C2
Ki [1]: 93 nM | Ki [2]: 1310 nM | Efficacy [3]: 86% | Ki [4]: 2380 nM

C[C@@H]1CNC[C@H]2Cc3ccc(CO)nc3N21
Ki [1]: 54 nM | Ki [2]: 1140 nM | Efficacy [3]: 88% | Ki [4]: 942 nM

CC(=O)Nc1ccc2c(n1)N1[C@@H](CNC[C@H]1C)C2
Efficacy [3]: 0%

Cc1c(Cl)ccc2c1N1[C@H](CNC[C@H]1C)C2
Ki [2]: 40 nM | Ki [4]: 19 nM | Phospholipidosis (Phospholipidosis [7]): 7.5 µM

C[C@@H]1CNC[C@H]2Cc3ccc(C#N)nc3N21
Ki [1]: 60 nM | Ki [2]: 1820 nM | Efficacy [3]: 85% | Ki [4]: 2550 nM

C[C@@H]1CNC[C@H]2Cc3ccc(COCC4CC4)nc3N21
pKb [8]: 6.7 | Ki [9]: > 720 nM | Ki [10]: > 1000 nM | Ki [11]: > 720 nM | Ki [12]: > 1000 nM | Ki [1]: 3.6 nM | EC50 [13]: 15 nM | Ki [14]: > 1000 nM | Ki (Mu-type opioid receptor): > 1000 nM | Ki [15]: > 720 nM | Ki [2]: 174 nM | Efficacy [3]: 87% | Ki [16]: > 1000 nM | Phospholipidosis (Phospholipidosis [5]): Not Active | Ki [4]: 74 nM | Ki [17]: > 1000 nM | Ki (D(4) dopamine receptor): > 720 nM | minimal effective dose (Rattus norvegicus): 10 mg/kg | Ki [18]: > 1000 nM | EC50 [19]: 23 nM | Emax [19]: 31% | Ki [20]: > 720 nM | Ki [21]: > 360 nM | IC50 [6]: > 30000 nM | Ki [22]: > 1000 nM | Ki [23]: > 1000 nM

C[C@@H]1CNC[C@H]2Cc3ccc(C(F)(F)F)nc3N21
Ki [1]: 14 nM | Ki [2]: 68 nM | Efficacy [3]: 96% | Ki [4]: 43 nM

CCO[C@@H](C)c1ccc2c(n1)N1[C@@H](CNC[C@H]1C)C2
Ki [1]: 2.3 nM | inhibition at 10 µM (hERG (KCNH2)): 20% | Ki [2]: 295 nM | Efficacy [3]: 83% | Ki [4]: 65 nM

C[C@@H]1CNC[C@H]2Cc3ccc(Cl)nc3N21
Ki [1]: 1.6 nM | Ki [2]: 48 nM | Efficacy [3]: 98% | Ki [4]: 42 nM | IC50 [6]: 40000 nM

Clc1ccc2c(n1)N1CCNCC1C2 (centres undefined)
Ki [1]: 131 nM | Ki [2]: 221 nM | Ki [4]: 217 nM

C[C@@H]1CNC[C@@H]2Cc3ccc(Cl)nc3N21
Ki [1]: 52 nM | Ki [2]: 217 nM | Efficacy [3]: 81% | Ki [4]: 54 nM

C[C@@H]1CNC[C@H]2Cc3ccc(Br)nc3N21
Ki [1]: 0.8 nM | Ki [2]: 81 nM | Efficacy [3]: 97% | Ki [4]: 53 nM

C[C@H](O)c1ccc2c(n1)N1[C@@H](CNC[C@H]1C)C2
Ki [1]: 39 nM | Ki [2]: 835 nM | Efficacy [3]: 101% | Ki [4]: 392 nM

COCc1ccc2c(n1)N1[C@@H](CNC[C@H]1C)C2
Ki [1]: 16 nM | Ki [2]: 379 nM | Efficacy [3]: 97% | Ki [4]: 565 nM
